{
  "source": "patent US20040142405A1",
  "about": "“Method of detecting drug resistance” (priority 2003, published 2004)",
  "key": {"AIDS patients": {"tested_on": "AIDS patients", "settings": "cited from earlier work"}, "G48V mutated PR": {"target": "T1, G48V mutated PR (Human immunodeficiency virus type 1 group M subtype B, UniProt P12497, G536V)", "T1 construct": "a virus encoded protease (PR) which is one of the individual proteins making up the uncleaved polyprotein; made in house; host or cells: cell-free in vitro translation (Biotin in vitro translation kit, Roche 1559951) of RNA from the media of cultured cells infected with HIV-1 G48V", "experiment": "Four-path impedance analysis (FIG. 5) of proteins translated from RNA of the HIV-1 G48V mutant", "type": "biochemical, HIV-1 (NL4-3)", "experimental": "(§1) A conventional three electrode cell, consisting of the modified Au electrode, a glassy carbon auxiliary electrode isolated by a glass frit, and a saturated calomel electrode (SCE) connected to the working volume with a Luggin capillary, was used for the electrochemical measurements. The cell was positioned in a grounded Faradaic cage. Impedance measurements were performed using an electrochemical impedance analyzer (EG&G, model 1025) and potentiostat (EG&G, model 283) connected to a computer (EG&G Software Power Suite 1.03 and 270 for impedance measurements). All electrochemical measurements were performed in 0.1 M phosphate buffer, pH 7.0, as a background electrolyte solution. Faradaic impedance measurements were performed in the presence of 10 mM K3[Fe(CN)6]/K4Fe(CN)6] (1:1) mixture, as a redox probe. Impedance measurements were performed at a bias potential of 0.17 V versus SCE using alternating voltage, 10 mV, in the frequency range of 100 mHz to 10 kHz. The impedance spectra were plotted in the form of complex plane diagrams (Nyquist plots).\nThe antibody-functionalized electrode was interacted with varying concentrations of the Gag polyprotein generated in the translation mixture for 60 min. diluted to 1.0 mL in phosphate-buffered saline (PBS) solution, 0.1 M, pH 7.0, at room temperature. After attachment of the respective polyprotein to the sensing interface, the electrode was incubated in the solution of anti-MA or anti-CA (sources were 200-fold diluted) for 30 min at room temperature. After attachment to the respective antibody, the electrode was incubated either in a goat-anti-rabbit-HRP conjugate solution (2.5 μg·mL^−1), for the MA analysis, or in a goat-anti-mouse-HRP conjugate solution (2.5 μg·mL^−1) for the CA analysis, for 30 minutes at room temperature. 4-Chloro-1-naphthol (1) (FIG. 1D) was dissolved initially in ethanol and then the ethanolic stock solution was diluted with 0.1 M phosphate buffer, pH 7.0, to yield the developing solution that included 1×10^−3 M (1) and 2% (v/v) ethanol. […]"}, "[1]": {"tested_on": "viral PR from patients' plasma HIV RNA", "experiment": "Four-path impedance analysis (FIG. 5) of RNA extracted from blood samples of AIDS patients treated with saquinavir", "type": "biochemical", "settings": "for α = Ret^B(1)/Ret^A(1): CA units, anti-CA; for β = Ret^B(2)/Ret^A(2): MA units, anti-MA, β≈1.0 drug resistant, β<1 drug sensitive", "experimental": "Plasma was obtained from consenting donors following removal of blood cells by centrifugation for 5 minutes at 3,000 rpm. The plasma was 3-fold diluted with PBS, and viral particles were peletted by centrifuging the volume for 45 minutes at 45,000 rpm in a Backman centrifuge (SW 50.1 rotor). The viral pellets were suspended in 1 mL TRIzol reagent (Gibco BRL) containing 5-10 μg of tRNA (Sigma) as carrier and RNA was extracted according to the manufacturer's instructions.\nAll the RNA preparations were translated in vitro using the “Biotin in vitro translation kit” (Roche 1559951) in the absence or presence of Saquinavir (Ro 31-8959). Reactions were performed in 50 μL, according to the manufacturer's instructions, using DEPC-treated water. The PR inhibitor Saquinavir was dissolved in 1M NaCl in the DEPC-treated water, and was added to reaction mixtures before starting the synthesis. The reaction mixtures were incubated for 90 min at 30° C. and the reactions were halted by placing in ice or storage at −75° C. until further use in the electrochemical measurements.\nAn extracted RNA specimen 100 is subdivided into two samples, A 102 and B 104. While sample A is subjected to in vitro translation in the presence of the PI, sample B is translated in the absence of the PI. Each of the translation mixtures is then further divided into two equal sub-samples, sample A into sub-samples A(1) 106 and A(2) 108, and sample B into sub-samples B(1) 110 and B(2) 112. The sub-samples A(1) and B(1) are subjected to the analysis of the total CA units using anti-CA, according to FIG. 1B, route (ii). The sub-samples A(2) and B(2) utilize the anti-MA antibody to assess content of polyprotein in the respective samples, according to FIG. 1A and FIG. 1B, route (i). Note that the ratio of the interfacial electron transfer resistances generated upon the precipitation of the precipitate (20) in sub-samples A(2) and B(2) reflect the content of polyprotein generated under PR inhibition vs. the unprocessed (=unhydrolyzed) polyprotein in the system.\nThe ratio of electron transfer resistances of paths A(1) and B(1) should be independent of the PI, and its value should be ≈1. This ratio provides an internal standard for the effectiveness of translations in the entire set of experiments. Thus, the four-path analysis scheme of the mRNA translation processes eliminates the background signal of unprocessed polyproteins in the absence of the inhibitor. The assay also abrogates the difference in the affinities of anti-CA and anti-MA to the respective antigens. Since the original sample is subdivided into equivalent sub-samples prior to translations, the problem of different RNA contents in analysis paths is cancelled out.\nThe analysis scheme outlined in FIG. 5 was applied to detect drug resistance in AIDS patients, treated with saquinavir. In this process, we expect that the analysis of the CA-units by the anti-CA antibodies will lead to an electron transfer resistance ratio of paths A(1) 106 and B(1) 110 in FIG. 5, that corresponds to α=Ret^B(1)/Ret^A(1)≈1.0 whereas the ratio of electron transfer resistance analyzing the MA-units with the anti-MA antibody of paths B(2) 112 and A(2) 108 in FIG. 5 should reveal the value β=Ret^B(2)/Ret^A(2)≈1.0 for drug resistant patients, and β<1 for drug sensitive patients."}, "[2]": {"target": "T2, HIV-1 viral protease (PR) (Human immunodeficiency virus type 1 group M subtype B, UniProt P04585)", "type": "biochemical", "settings": "for interfacial electron transfer resistance Ret after biocatalyzed precipitation of (20) (curve f): translation in the presence of saquinavir 1×10^−4 M, 10 min precipitation, non-inhibited mixture 2500 Ω", "experimental": "as §1\nThe electrodes were rinsed with water, dried, and soaked in a 10 mM solution of the DSP-active ester in DMSO for 30 min at room temperature. The functionalized electrodes were rinsed with DMSO and water and incubated in a 100 μg·m]L^−1 solution of protein G, for 90 min in a phosphate buffer saline solution, pH=7.4, at room temperature, to couple covalently protein G lysine residues to the functionalized electrodes. The protein G-functionalized electrodes were then allowed to interact with the Fc fragment of the anti-CA-antibody, 1 μg·mL^−1, 30 min at room temperature, to yield the sensing interfaces.\n(§2) The antibody-functionalized electrode was interacted with varying concentrations of the Gag polyprotein generated in the translation mixture for 60 min. diluted to 1.0 mL in phosphate-buffered saline (PBS) solution, 0.1 M, pH 7.0, at room temperature. After attachment of the respective polyprotein to the sensing interface, the electrode was incubated in the solution of anti-MA or anti-CA (sources were 200-fold diluted) for 30 min at room temperature. After attachment to the respective antibody, the electrode was incubated either in a goat-anti-rabbit-HRP conjugate solution (2.5 μg·mL^−1), for the MA analysis, or in a goat-anti-mouse-HRP conjugate solution (2.5 μg·mL^−1) for the CA analysis, for 30 minutes at room temperature. 4-Chloro-1-naphthol (1) (FIG. 1D) was dissolved initially in ethanol and then the ethanolic stock solution was diluted with 0.1 M phosphate buffer, pH 7.0, to yield the developing solution that included 1×10^−3 M (1) and 2% (v/v) ethanol. The modified electrodes consisting of the HRP-tagged antibody-functionalized electrodes were incubated in the developing solution of (1) for a fixed and controlled time of 10 minutes at room temperature to stimulate the precipitation of (2) (FIG. 1D).\n(§3) After incubation of the respective electrodes in the probe solution, the electrodes were rinsed with 0.1 M phosphate buffer, pH 7.0, and introduced into the electrochemical cell for their analyses by Faradaic impedance spectroscopy. It should be noted that after each step the electrode was rinsed thoroughly with buffer solution, pH 7.0, to eliminate any non-specific adsorbates on the electrode. In the microgravimetric quartz crystal microbalance measurements, the various modification and amplification steps, including the rinsing steps, were performed in the flow cell of the QCM apparatus.\n(§4) All the RNA preparations were translated in vitro using the “Biotin in vitro translation kit” (Roche 1559951) in the absence or presence of Saquinavir (Ro 31-8959). Reactions were performed in 50 μL, according to the manufacturer's instructions, using DEPC-treated water. The PR inhibitor Saquinavir was dissolved in 1M NaCl in the DEPC-treated water, and was added to reaction mixtures before starting the synthesis."}, "[3]": {"target": "T2, HIV-1 viral protease (PR)", "type": "biochemical", "experimental": "as §2, §3, §4"}, "[4]": {"target": "protease encoded by the wild-type viral RNA (HIV-1 PR) (Human immunodeficiency virus type 1 group M subtype B, UniProt P04585)", "type": "biochemical", "experimental": "as §1\nThe antibody-functionalized electrode was interacted with varying concentrations of the Gag polyprotein generated in the translation mixture for 60 min. diluted to 1.0 mL in phosphate-buffered saline (PBS) solution, 0.1 M, pH 7.0, at room temperature. […]"}, "viral PR": {"target": "viral PR (Human immunodeficiency virus type 1 group M subtype B, UniProt P04585)", "type": "biochemical", "settings": "RNA of HIV-1 infected cultured cells, increased concentrations of saquinavir, FIG. 8", "experimental": "as §2\nAll the RNA preparations were translated in vitro using the “Biotin in vitro translation kit” (Roche 1559951) in the absence or presence of Saquinavir (Ro 31-8959). […]"}, "[5]": {"settings": "translation of bacterial RNA in the presence of saquinavir 1×10^−4 M"}},
  "note": "Read-outs that look alike come from different tables or passages of the source.",
  "data": [
    {"smiles": "CC(C)(C)NC(=O)[C@@H]1C[C@@H]2CCCC[C@@H]2CN1C[C@@H](O)[C@H](Cc1ccccc1)NC(=O)[C@H](CC(N)=O)NC(=O)c1ccc2ccccc2n1", "note": "[saquinavir]", "values": [
      {"measurement": "clinical condition under treatment", "setting": "AIDS patients; all other patients (#1, #3, #4), subjective statements of the physicians", "value": "balanced conditions"},
      {"measurement": "clinical response to treatment", "setting": "AIDS patients; patients #2 and #5, subjective statements of the physicians", "value": "did not react to the treatment"},
      {"measurement": "effect of the inhibitor on the protease activity", "setting": "G48V mutated PR", "value": "no effect of the inhibitor is observed"},
      {"measurement": "interfacial resistance Ret, path A(2) with the inhibitor (curve d)", "setting": "G48V mutated PR; identical to path B(2) without inhibitor", "value": "≈ 11 kΩ"},
      {"measurement": "ratio Ret^B(2)/Ret^A(2)", "setting": "G48V mutated PR; without vs with inhibitor", "value": 1},
      {"measurement": "α = Ret^B(1)/Ret^A(1)", "setting": "[1]; Patient # 1", "value": "1.17 ± 0.03"},
      {"measurement": "β = Ret^B(2)/Ret^A(2)", "setting": "[1]; Patient # 1", "value": "0.87 ± 0.04"},
      {"measurement": "α = Ret^B(1)/Ret^A(1)", "setting": "[1]; Patient # 2", "value": "1.07 ± 0.03"},
      {"measurement": "β = Ret^B(2)/Ret^A(2)", "setting": "[1]; Patient # 2", "value": "1.1 ± 0.04"},
      {"measurement": "α = Ret^B(1)/Ret^A(1)", "setting": "[1]; Patient # 3", "value": "1.04 ± 0.03"},
      {"measurement": "β = Ret^B(2)/Ret^A(2)", "setting": "[1]; Patient # 3", "value": "0.75 ± 0.04"},
      {"measurement": "α = Ret^B(1)/Ret^A(1)", "setting": "[1]; Patient # 4", "value": "1.10 ± 0.03"},
      {"measurement": "β = Ret^B(2)/Ret^A(2)", "setting": "[1]; Patient # 4", "value": "0.79 ± 0.04"},
      {"measurement": "α = Ret^B(1)/Ret^A(1)", "setting": "[1]; Patient # 5", "value": "1.0 ± 0.03"},
      {"measurement": "β = Ret^B(2)/Ret^A(2)", "setting": "[1]; Patient # 5", "value": "1.07 ± 0.04"},
      {"measurement": "ΔRet upon precipitation, non-inhibited mixture lower than inhibited translation mixture", "setting": "[2]; identical quantities of mRNA, absence vs presence of Saquinavir", "value": 4, "unit": "fold"},
      {"measurement": "increase in interfacial electron transfer resistance ΔRet upon the precipitation of (20)", "setting": "[2]; inhibited translation mixture, non-inhibited mixture ΔRet=500 Ω", "value": "≈ 2000 Ω"},
      {"measurement": "interfacial electron transfer resistance Ret after biocatalyzed precipitation of (20) (curve f)", "setting": "[2]", "value": "5000 Ω"},
      {"measurement": "interfacial electron transfer resistance Ret after biocatalyzed precipitation of (20) (curve f)", "setting": "[2]; listed as Saquinavir", "value": "ca. 5100 Ω"},
      {"measurement": "electron transfer resistance Ret after addition of anti-anti-MA-HRP conjugate (curve e)", "setting": "[2]; [5]", "value": "3000 Ω"},
      {"measurement": "interfacial electron-transfer resistance Ret after association of anti-MA-Ab (curve d)", "setting": "[2]; [5]", "value": "2800 Ω"},
      {"measurement": "interfacial electron-transfer resistance after binding of the Gag polyprotein to anti-CA-Ab (curve c)", "setting": "[2]; [5]", "value": "2100 Ω"},
      {"measurement": "Anti-MA Δf", "setting": "[3]", "value": "−80", "unit": "Hz"},
      {"measurement": "Anti-anti MA/HRP Δf", "setting": "[3]", "value": "−140", "unit": "Hz"},
      {"measurement": "Precipitation of (2) Δf", "setting": "[3]", "value": "−100", "unit": "Hz"},
      {"measurement": "frequency change upon treatment of the surface with the translated proteins", "setting": "[3]", "value": "−50", "unit": "Hz"},
      {"measurement": "ratio Ret^B(2)/Ret^A(2)", "setting": "[4]", "value": 0.43},
      {"measurement": "electron transfer resistance Ret, path A(2), anti-MA analysis (curve d)", "setting": "[4]; wild type virus, saquinavir 1×10^−4 M, non-inhibited path B(2) Ret=6", "value": 14, "unit": "kω"},
      {"measurement": "interfacial electron transfer resistance as the concentration of the inhibitor increases", "setting": "viral PR", "value": "enhanced"}
    ]}
  ]
}
